Here are results for twelve compounds from the SangsterLogP compilation.

SMILES strings stand for the structures.

The series in a line: method code SF-GLC,AS, from DOI: 10.1021/jf60192a013, PMID: 4840568.
In the case of `COP(=O)(NC(C)(C)C)SC` (configuration not stated), the log partition coefficient (logP) amounted to 0.96.
As for `COP(N)(=O)SC` (configuration not stated), the log partition coefficient (logP) was -0.66.
For `CNP(=O)(OC)SC` (configuration not stated) the value was -0.07; for `CCOP(N)(=O)SCC` (configuration not stated), 0.15; for `CCNP(=O)(OC)SC` (configuration not stated), 0.07.
For `CCC(C)NP(=O)(OC)SC` (configuration not stated), the logP worked out at 0.95.
In turn, `CCCCCCCCNP(=O)(OC)SC` (configuration not stated) showed a logP of 1.51.
In the case of `CCCCNP(=O)(OC)SC` (configuration not stated), the logP stood at 0.94.
For `CCCOP(N)(=O)SCCC` (configuration not stated) the value was 1.23; for `CCCNP(=O)(OC)SC` (configuration not stated), 0.65.
`COP(=O)(NCC(C)C)SC` (configuration not stated): the logP was determined as 0.97.
For `CCCCCCNP(=O)(OC)SC` (configuration not stated) the value was 1.11.
